According to patent US7820714B2, “Siglec inhibitors” (priority 2001, dated 2010):
Read-outs that look alike come from different tables or passages of the source.

Assays:
[1] = target: T1, Siglec-4a (MAG) (UniProt P20917); assay: Hapten inhibition assay, Siglec-4a (MAG); conditions: for Siglec-4a (MAG) rIP: quotient IC50 reference compound / IC50 compound; for IC50: read-out: Siglec-4a (MAG) IC50
T1 sequence (P20917 1-627): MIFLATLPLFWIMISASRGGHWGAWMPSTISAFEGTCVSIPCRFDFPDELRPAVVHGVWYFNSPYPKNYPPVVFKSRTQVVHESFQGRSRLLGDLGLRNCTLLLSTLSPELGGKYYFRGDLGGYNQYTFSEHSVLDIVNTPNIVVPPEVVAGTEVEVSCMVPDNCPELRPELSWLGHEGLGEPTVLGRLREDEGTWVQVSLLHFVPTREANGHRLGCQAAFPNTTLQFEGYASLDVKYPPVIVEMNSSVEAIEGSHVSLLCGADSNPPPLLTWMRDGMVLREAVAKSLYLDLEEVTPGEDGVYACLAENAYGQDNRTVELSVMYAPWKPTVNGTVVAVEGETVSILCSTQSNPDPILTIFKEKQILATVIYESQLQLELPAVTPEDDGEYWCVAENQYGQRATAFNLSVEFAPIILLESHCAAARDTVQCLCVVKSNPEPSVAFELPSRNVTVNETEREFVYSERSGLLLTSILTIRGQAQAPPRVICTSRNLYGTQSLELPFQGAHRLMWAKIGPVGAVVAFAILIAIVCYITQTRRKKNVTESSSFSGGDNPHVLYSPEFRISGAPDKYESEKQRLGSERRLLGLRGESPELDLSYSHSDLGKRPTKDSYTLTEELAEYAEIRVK
Procedure: Preferably, the inhibition can be determined by a Hapten inhibition test. […] After overnight incubation at 4° C. the unbound complexes are removed by washing the cells and the bound radioactivity is determined. […] Then followed the addition of 10 μl of a suspension of target cells, preferably 0.25 to 0.5% of human erythrocytes and incubation overnight at 4° C. The unbound radioactivity is removed by washing the cells five times with 200 μl of washing buffer, preferably phosphate-buffered saline with 0.1% (W/V) bovine serum albumin, and the cell-bound activity is determined with a γ-counter. […] The inhibition is determined in that the value without inhibitor is set to 0% and that with the sialidase-treated cells is set equal to 100%.

[2] = target: T2, Siglec-2 (human CD22) (Homo sapiens, UniProt P20273); assay: Hapten inhibition assay, Siglec-2 (human CD22); format: binding; conditions: for Siglec-2 (human CD22) rIP: quotient IC50 reference compound / IC50 compound
T2 sequence (P20273 20-138 limits assumed): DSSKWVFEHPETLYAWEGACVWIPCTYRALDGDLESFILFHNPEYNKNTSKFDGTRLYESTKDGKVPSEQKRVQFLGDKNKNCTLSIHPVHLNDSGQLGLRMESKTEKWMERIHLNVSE

[3] = target: Siglec-1 (sialoadhesin) (Mus musculus, UniProt Q62230); assay: Hapten inhibition assay, Siglec-1 (sialoadhesin); format: binding; conditions: for Siglec-1 (sialoadhesin) rIP: quotient IC50 reference compound / IC50 compound; for Siglec-1 (sialoadhesin) percentage in parentheses below the IC50 bound: at the concentration of the IC50 bound, meaning not defined in the patent
Sequence of Siglec-1 (sialoadhesin) (Q62230 20-136 limits assumed): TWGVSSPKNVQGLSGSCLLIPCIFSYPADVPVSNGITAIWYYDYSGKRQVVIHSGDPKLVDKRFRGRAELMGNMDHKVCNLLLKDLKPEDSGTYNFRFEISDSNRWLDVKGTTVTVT
Procedure: (§1) Preferably, the inhibition can be determined by a Hapten inhibition test. […] After overnight incubation at 4° C. the unbound complexes are removed by washing the cells and the bound radioactivity is determined. From the data obtained in this way, the concentrations are found which lead to 50% inhibition of the binding (IC50 values) (5, 6). Specially preferred during the Hapten inhibition test was 10 μl of the complex solution with an activity of 10^3 Bq ^125I mixed with the same volume of a solution of the substance to be investigated (concentrated three times) and incubated at 4° C. for one hour. Then followed the addition of 10 μl of a suspension of target cells, preferably 0.25 to 0.5% of human erythrocytes and incubation overnight at 4° C. The unbound radioactivity is removed by washing the cells five times with 200 μl of washing buffer, preferably phosphate-buffered saline with 0.1% (W/V) bovine serum albumin, and the cell-bound activity is determined with a γ-counter. […] The inhibition is determined in that the value without inhibitor is set to 0% and that with the sialidase-treated cells is set equal to 100%.
(§2) The IC50 value is the siglec inhibitor concentration which leads to 50% inhibition in the binding in the Hapten inhibition assay.

[4] = target: T3, Siglec-2 (murine CD22) (Mus musculus, UniProt P35329); assay: Hapten inhibition assay, Siglec-2 (murine CD22); format: binding; conditions: for Siglec-2 (murine CD22) rIP: quotient IC50 reference compound / IC50 compound
T3 sequence (P35329 22-148 limits assumed): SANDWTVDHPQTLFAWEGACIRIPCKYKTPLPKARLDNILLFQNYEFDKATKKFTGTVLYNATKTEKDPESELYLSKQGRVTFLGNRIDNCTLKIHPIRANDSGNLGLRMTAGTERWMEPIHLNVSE
Procedure: as §1, §2

[5] = at the concentration of the IC50 bound, meaning not defined in the patent

Compound	Siglec-4a (MAG) rIP [1]	IC50 ([1]; unit inferred)	Siglec-2 (human CD22) rIP [2]	IC50 ([2]; unit inferred)	Siglec-1 (sialoadhesin) rIP [3]	IC50 ([3]; unit inferred)	Siglec-2 (murine CD22) rIP [4]	IC50 ([4]; unit inferred)	binds stronger to siglec-4a than the reference compound ([1]; relative to 2-alpha-methyl-5-N-acetyl-neuraminic acid)	Siglec-4a (MAG) percentage in parentheses below the IC50 bound [1, 5]	IC50 ([1]; bounds given in mM)	Siglec-2 (human CD22) percentage in parentheses below the IC50 bound [2, 5]	IC50 ([2]; bounds given in mM)	Siglec-1 (sialoadhesin) percentage in parentheses below the IC50 bound [3]	IC50 ([3]; bounds given in mM)	Siglec-2 (murine CD22) percentage in parentheses below the IC50 bound [4, 5]	IC50 ([4]; bounds given in mM)
COC1(C(=O)O)CC(O)C(NC(C)=O)C(C(O)C(O)CNC(=O)c2c(F)c(F)c(F)c(F)c2F)O1 (stereo not drawn) [Methyl-α-9-N-(pentafluorbenzoyl)-amino-9-desoxy-Neu5Ac]	42	0.107 mM	3.3	0.36 mM	0.3	7 mM	2.0	2.5 mM									
CO[C@]1(C(=O)O)C[C@H](O)[C@@H](NC(C)=O)[C@H]([C@H](O)[C@H](O)CNC(=O)c2ccccc2)O1 [Methyl-α-9-N-benzoyl-amino-9-desoxy-Neu5Ac]	704	0.007 mM	5.7	0.29 mM	1.8	0.539 mM	3.7	1.09 mM	approximately 704 times								
CO[C@]1(C(=O)O)C[C@H](O)[C@@H](NC(C)=O)[C@H]([C@H](O)[C@H](O)CNC(=O)c2cc(O)cc(O)c2)O1 [Methyl-α-9-N-(3,5-dihydroxybenzoyl)-amino-9-desoxy-Neu5Ac]	166	0.028 mM	19	0.073 mM	1.7	0.525 mM		1.47 mM									
COc1ccc(C(=O)NC[C@@H](O)[C@@H](O)[C@@H]2O[C@@](OC)(C(=O)O)C[C@H](O)[C@H]2NC(C)=O)cc1 [Methyl-α-9-N-(4-methoxybenzoyl)-amino-9-desoxy-Neu5Ac]	393	0.012 mM	19	0.12 mM	8.4	0.042 mM	7.4	0.667 mM									
CO[C@]1(C(=O)O)C[C@H](O)[C@@H](NC(C)=O)[C@H]([C@H](O)[C@H](O)CNC(=O)Cc2ccc3ccccc3c2)O1 [Methyl-α-9-N-(naphthyl-2-acetyl)-amino-9-desoxy-Neu5Ac]	13	0.367 mM	131	0.008 mM	0.5	1.75 mM	83	0.071 mM									
COC1(C(=O)O)CC(O)C(O)C(C(O)C(O)CO)O1 (stereo not drawn) [Methyl-α-ketodesoxy-nonulsonic acid]	<<0.5		<<2		<0.8		<1.5			(225%)	> 1 mM	(117%)	> 1 mM	(74%)	> 1 mM	(74%)	> 2 mM
COC1(C(=O)O)CC(O)C(NC(C)=O)C(C(O)C(O)CNC(=O)c2cccc3cc4ccccc4cc23)O1 (stereo not drawn) [Methyl-α-9-N-(anthracen-5-carbonyl)-amino-9-desoxy-Neu5Ac]	28	0.162 mM	4.9	0.338 mM	0.5	0.75 mM	7.4	0.647 mM									
CCOc1c(N[C@H]2[C@H]([C@H](O)[C@H](O)CO)O[C@@](OC)(C(=O)O)C[C@@H]2O)c(=O)c1=O [Methyl-α-5-N-(etoxycylcobutendion)-neuraminic acid]	0.5	4.3 mM	2.3	0.94 mM	<<0.15		1.5	3.37 mM						(92%)	> 5 mM		
CO[C@]1(C(=O)O)C[C@H](O)[C@@H](NC(C)=O)[C@H]([C@H](O)[C@H](O)CNC(C)=O)O1 [Methyl-α-9-N-acetyl-amino-9-desoxy-Neu5Ac]	3.7	2.15 mM	0.6	1.8 mM	0.2	3.82 mM	2.7	1.75 mM									
COC1(C(=O)O)CC(O)C(NC(C)=O)C(C(O)C(O)CNC(=O)c2cccc(Oc3ccccc3)c2)O1 (stereo not drawn) [Methyl-α-9-N-(phenoxy-3-benzoyl)-amino-9-desoxy-Neu5Ac]			111	0.01 mM	1.5	0.54 mM	6.7	0.887 mM									
